This note sets out measurements from patent publication US11434220B2, “Use of physiological cooling active ingredients, and compositions comprising such active ingredients” (BASF SE, priority 2017, dated 2022).

The target of one experiment is T1, human TRPM8 receptor (Homo sapiens, UniProt Q7Z2W7).
T1 construct: expressed in transfected cells
Put plainly: Assay for TRPM8 modulators: Ca2+ fluorescence (Fluo-4) in HEK293-TRPM8 test cells. It counts as cell-based. The conditions noted are these: HEK293 cells stably transfected with human TRPM8, agonism, triplicates, 0.1-200 μM; read-out: Activity In vitro assay (EC50). An excerpt: The test cell system produced, with human TRPM8 DNA, was a stably transfected HEK293 cell line. Preference is given here to HEK293 which, via the plasmid introduced, offers the option of induction of TRPM8 expression by means of tetracycline.
The agonism or antagonism of the receptor can be quantified by means of a Ca^2+-sensitive dye (e.g. FURA, Fluo-4 etc.). Agonists on their own result in an increase in the Ca^2+ signal; antagonists in the presence of menthol, for example, result in a reduction in the Ca^2+ signal (in each case detected by means of the Fluo-4 dye which is caused to have different fluorescence properties by Ca^2+).
First of all, in a manner known per se, a fresh culture of transformed HEK cells is produced in cell culture bottles. The HEK293-TRPM8 test cells are detached from the cell culture bottles by means of trypsin and 40 000 cells/well are sown with 100 μl of medium in 96-hole plates (Greiner #655948 poly-D-lysine-coated). For induction of the TRPM8 receptor, tetracycline is added to the growth medium (DMEM/HG, 10% FCS tetracycline-free, 4 mM L-glutamine, 15 μg/mL blasticidin, 100 μg/mL hygromycin B, 1 μg/mL tetracycline). The next day, the cells are laden with Fluo-4AM dye and the test is conducted.
The test substances are used in the assay in triplicates in concentrations of 0.1-200 μM. Normally, the compounds are kept in DMSO solutions and diluted down for the assay to a maximum DMSO concentration of 2%.

Experiment [1] relates to oral cavity of trained panelists. Briefly: Time-intensity profile of cooling after 40 s mouth rinse with sample solution. In kind it is in vivo, human. The conditions noted are these: for Cooling intensity: 40 s mouth rinse; for Onset of cooling activity: time-intensity profile, with respect to WS3. As to the method: To establish a time-intensity profile, the oral cavity of trained panelists (n=8 to 11) was rinsed for 40 seconds with a mouthful of a sample solution (2 ppm of FEMA 4809 or 50 ppm of FEMA 4496 or 50 ppm of 1) to 5)). Subsequently, the cooling intensity perceived was assessed at defined time intervals using a scale.

The test system of the next experiment is trained panelists. Briefly: Sensory assessment: cooling intensity of inventive amides in 5% sugar solution compared to FEMA 4809. The conditions noted are these: scale 1 (very weak) to 9 (very strong), n=10 to 11. In kind it is in vivo, human. How it is done: […] What were assessed here were initial cooling intensity, overall cooling intensity and long-lasting action on a scale from 1 (very weak) to 9 (very strong).

[2] abbreviates: time 0 sec; 2 ppm FEMA 4809, 50 ppm FEMA 4496, 50 ppm 1) to 5).
The mark [3] stands for this setting: time 40 sec; 2 ppm FEMA 4809, 50 ppm FEMA 4496, 50 ppm 1) to 5).
The mark [4] stands for this setting: time 70 sec; 2 ppm FEMA 4809, 50 ppm FEMA 4496, 50 ppm 1) to 5).
The mark [5] stands for this setting: time 100 sec; 2 ppm FEMA 4809, 50 ppm FEMA 4496, 50 ppm 1) to 5).
The mark [6] stands for this setting: time 130 sec; 2 ppm FEMA 4809, 50 ppm FEMA 4496, 50 ppm 1) to 5).
The mark [7] stands for this setting: time 160 sec; 2 ppm FEMA 4809, 50 ppm FEMA 4496, 50 ppm 1) to 5).
Where [8] appears, read: time 190 sec; 2 ppm FEMA 4809, 50 ppm FEMA 4496, 50 ppm 1) to 5).
Setting [9] is: time 220 sec; 2 ppm FEMA 4809, 50 ppm FEMA 4496, 50 ppm 1) to 5).
Setting [10] is: time 250 sec; 2 ppm FEMA 4809, 50 ppm FEMA 4496, 50 ppm 1) to 5).
[11] abbreviates: time 280 sec; 2 ppm FEMA 4809, 50 ppm FEMA 4496, 50 ppm 1) to 5).
Where [12] appears, read: time 310 sec; 2 ppm FEMA 4809, 50 ppm FEMA 4496, 50 ppm 1) to 5).
[13] abbreviates: time 340 sec; 2 ppm FEMA 4809, 50 ppm FEMA 4496, 50 ppm 1) to 5).
The mark [14] stands for this setting: time 640 sec; 2 ppm FEMA 4809, 50 ppm FEMA 4496, 50 ppm 1) to 5).
Where [15] appears, read: time 940 sec; 2 ppm FEMA 4809, 50 ppm FEMA 4496, 50 ppm 1) to 5).
The mark [16] stands for this setting: time 1240 sec; 2 ppm FEMA 4809, 50 ppm FEMA 4496, 50 ppm 1) to 5).

T1 sequence (Q7Z2W7 whole entry): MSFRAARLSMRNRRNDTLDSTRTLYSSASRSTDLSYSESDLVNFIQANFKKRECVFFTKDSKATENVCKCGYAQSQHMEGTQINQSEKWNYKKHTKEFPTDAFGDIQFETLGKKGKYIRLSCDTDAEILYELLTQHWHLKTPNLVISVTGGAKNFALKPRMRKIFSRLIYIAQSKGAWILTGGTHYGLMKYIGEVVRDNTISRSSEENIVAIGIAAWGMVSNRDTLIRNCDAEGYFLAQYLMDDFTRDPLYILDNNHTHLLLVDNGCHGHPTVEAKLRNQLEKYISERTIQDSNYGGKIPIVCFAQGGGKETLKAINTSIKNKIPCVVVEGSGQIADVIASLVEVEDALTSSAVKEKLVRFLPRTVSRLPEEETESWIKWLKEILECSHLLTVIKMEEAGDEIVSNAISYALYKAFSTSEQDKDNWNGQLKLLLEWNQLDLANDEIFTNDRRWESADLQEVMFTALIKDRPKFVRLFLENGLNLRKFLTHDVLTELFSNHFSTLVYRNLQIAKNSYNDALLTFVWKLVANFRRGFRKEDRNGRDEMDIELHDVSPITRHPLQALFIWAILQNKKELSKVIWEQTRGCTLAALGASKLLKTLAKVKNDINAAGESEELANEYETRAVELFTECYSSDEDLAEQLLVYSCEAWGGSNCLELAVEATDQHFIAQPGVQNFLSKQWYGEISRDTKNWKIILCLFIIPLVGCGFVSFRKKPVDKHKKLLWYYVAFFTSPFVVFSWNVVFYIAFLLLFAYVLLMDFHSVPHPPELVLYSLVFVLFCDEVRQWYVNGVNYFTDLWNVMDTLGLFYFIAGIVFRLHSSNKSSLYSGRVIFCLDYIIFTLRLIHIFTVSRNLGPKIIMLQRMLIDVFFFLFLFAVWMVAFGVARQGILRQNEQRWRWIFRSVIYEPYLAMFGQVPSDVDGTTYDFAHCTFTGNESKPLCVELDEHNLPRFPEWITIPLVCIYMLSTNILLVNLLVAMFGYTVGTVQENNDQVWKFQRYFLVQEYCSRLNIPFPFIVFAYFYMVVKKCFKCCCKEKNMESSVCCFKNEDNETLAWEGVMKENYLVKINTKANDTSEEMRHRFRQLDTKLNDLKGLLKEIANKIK

As usually defined, the EC50 is the concentration giving half of the maximal effect. On to `COc1ccc(OCC(=O)N(c2cc[nH]n2)C2CCSC2)cc1` (stereo not drawn) [2-(4-methoxyphenoxy)-N-(1H-pyrazol-3-yl)-N-tetrahydrothiophen-3-yl-acetamide], for which the EC50 at human TRPM8 receptor stood at 10 µM.

Take `COc1ccc(OCC(=O)N(CCSC)c2ccccc2)cc1` [2-(4-methoxyphenoxy)-N-(2-methylsulfanylethyl)-N-phenyl-acetamide]: the EC50 at human TRPM8 receptor came to 30 µM.

As to `Cc1ccc(OCC(=O)N(CC2CCCO2)c2cc[nH]n2)cc1` (stereo not drawn) [2-(4-methylphenoxy)-N-(1H-pyrazol-3-yl)-N-(tetrahydrofuran-2-ylmethyl)acetamide], the EC50 on human TRPM8 receptor turned out to be 10 µM.

As for `Cc1ccc(OCC(=O)N(c2ccccc2)C2CCOC2)cc1` (stereo not drawn) [2-(4-methylphenoxy)-N-phenyl-N-tetrahydrofuran-3-yl-acetamide], the EC50 on human TRPM8 receptor stood at 25 µM.

As to `Cc1ccc(/C=C/C(=O)N(c2ccccn2)C2CCSC2)cc1` (stereo not drawn) [3), (E)-3-(p-tolyl)-N-(2-pyridyl)-N-tetrahydrothiophen-3-ylprop-2-enamide], the Cooling intensity in experiment [1] (setting [2]) is 0.0; in experiment [1] (setting [3]), 4.0; in experiment [1] (setting [4]) it was 4.0; in experiment [1] (setting [5]) it was 4.0; in experiment [1] (setting [6]) it was 3.9; in experiment [1] (setting [7]), 3.7. Besides, the Cooling intensity in experiment [1] (setting [8]) is 3.7; in experiment [1] (setting [9]), 3.5; in experiment [1] (setting [10]), 3.4; in experiment [1] (setting [11]) it was 3.3; in experiment [1] (setting [12]) it was 3.2; in experiment [1] (setting [13]), 3.2. Moreover, the Cooling intensity in experiment [1] (setting [14]) is reported as 2.2; in experiment [1] (setting [15]), 1.3; in experiment [1] (setting [16]), 0.7.

As for `CSCCN(C(=O)/C=C/c1ccc2c(c1)OCO2)c1ccccn1` [5), (E)-3-(1,3-benzodioxol-5-yl)-N-(2-methylsulfanylethyl)-N-(2-pyridyl)prop-2-enamide], the Cooling intensity in experiment [1] (setting [2]) amounted to 0.0; in experiment [1] (setting [3]) it was 5.7; in experiment [1] (setting [4]), 6.2; in experiment [1] (setting [5]), 6.0; in experiment [1] (setting [6]), 5.6; in experiment [1] (setting [7]), 5.6. Further, the Cooling intensity turned out to be 5.2 in experiment [1] (setting [8]); 5.0 in experiment [1] (setting [9]); 4.9 in experiment [1] (setting [10]); 4.6 in experiment [1] (setting [11]); 4.5 in experiment [1] (setting [12]); 4.3 in experiment [1] (setting [13]). Besides, the figures for the Cooling intensity in experiment [1] (setting [14]), in experiment [1] (setting [15]) and in experiment [1] (setting [16]) were 3.1, 1.9 and 1.1, respectively.

In the experiment on trained panelists (5 ppm in 5% sugar solution), `CSCCN(C(=O)/C=C/c1ccc2c(c1)OCO2)c1cc[nH]n1` [(E)-3-(1,3-benzodioxol-5-yl)-N-(2-methylsulfanylethyl)-N-(1H-pyrazol-3-yl)prop-2-enamide] had an Initial cooling effect of 3.1, a Long-lasting action of 4.6 and an Overall cooling intensity of 4.8. In the experiment on trained panelists (20 ppm in 5% sugar solution), this compound yielded an Initial cooling effect of 3.7, a Long-lasting action of 6.6 and an Overall cooling intensity of 6.6.

In the experiment with trained panelists (2 ppm in 5% sugar solution), `CSCCN(C(=O)/C=C/c1ccc2c(c1)OCO2)c1ccccn1` [(E)-3-(1,3-benzodioxol-5-yl)-N-(2-methylsulfanylethyl)-N-(2-pyridyl)prop-2-enamide] had an Initial cooling effect of 3.4, a Long-lasting action of 4.3 and an Overall cooling intensity of 4.6. For the same compound, in the experiment with trained panelists (20 ppm in 5% sugar solution), the Initial cooling effect is given as 6.2, the Long-lasting action amounted to 7.5 and the Overall cooling intensity came out at 7.8.

In the experiment with trained panelists (20 ppm in 5% sugar solution), `CSCCN(C(=O)/C=C/c1ccc2c(c1)OCO2)c1ccccc1` [(E)-3-(1,3-benzodioxol-5-yl)-N-(2-methylsulfanylethyl)-N-phenyl-prop-2-enamide] displayed an Initial cooling effect of 2.7, a Long-lasting action of 4.7 and an Overall cooling intensity of 4.7.

For the compound `CSCCN(C(=O)/C=C/c1ccc(C)cc1)c1ccccn1` [(E)-N-(2-methylsulfanylethyl)-3-(p-tolyl)-N-(2-pyridyl)prop-2-enamide], in the experiment on trained panelists (20 ppm in 5% sugar solution), the Initial cooling effect was 4, the Long-lasting action is listed as 5.3 and the Overall cooling intensity is 5.7.

In the experiment with trained panelists (20 ppm in 5% sugar solution), `Cc1ccc(/C=C/C(=O)N(c2ccccc2)C2CCOC2)cc1` (stereo not drawn) [(E)-N-phenyl-3-(p-tolyl)-N-tetrahydrofuran-3-ylprop-2-enamide] returned an Initial cooling effect of 4.3, a Long-lasting action of 6.1 and an Overall cooling intensity of 5.7.

In the case of `CC1CCC(C(C)C)C(C(=O)Nc2ccc(CC#N)cc2)C1` (stereo not drawn) [FEMA 4496], the Cooling intensity was 0 in experiment [1] (setting [2]); 1.9 in experiment [1] (setting [3]); 2.3 in experiment [1] (setting [4]); 2.4 in experiment [1] (setting [5]); 2.3 in experiment [1] (setting [6]); 2.3 in experiment [1] (setting [7]). The Cooling intensity came to 2.3 in experiment [1] (setting [8]); 2.2 in experiment [1] (setting [9]); 2.2 in experiment [1] (setting [10]); 2.2 in experiment [1] (setting [11]); 2.1 in experiment [1] (setting [12]); 2.1 in experiment [1] (setting [13]). Moreover, the Cooling intensity in experiment [1] (setting [14]) is 2.0; in experiment [1] (setting [15]), 1.5; in experiment [1] (setting [16]), 1.2. Besides, the “Onset of cooling activity” value in experiment [1] is “distinctly retarded onset of the cooling action”.

In the experiment with trained panelists (2 ppm in 5% sugar solution), `Cc1ccc(OCC(=O)N(Cc2cccs2)c2ccn[nH]2)cc1` [FEMA 4809] had an Initial cooling effect of 3.9. The Long-lasting action in the experiment with trained panelists (2 ppm in 5% sugar solution) came to 7.5. The Overall cooling intensity with trained panelists (2 ppm in 5% sugar solution) turned out to be 7.3. The Cooling intensity in experiment [1] (setting [2]) is 0; in experiment [1] (setting [3]) it was 2.7; in experiment [1] (setting [4]) it was 2.8; in experiment [1] (setting [5]) it was 2.5; in experiment [1] (setting [6]), 2.6; in experiment [1] (setting [7]), 2.6. In addition, the Cooling intensity amounted to 2.7 in experiment [1] (setting [8]); 2.8 in experiment [1] (setting [9]); 2.7 in experiment [1] (setting [10]); 2.8 in experiment [1] (setting [11]); 2.9 in experiment [1] (setting [12]); 2.8 in experiment [1] (setting [13]). Moreover, the Cooling intensity in experiment [1] (setting [14]) is listed as 2.6; in experiment [1] (setting [15]) it was 2.6; in experiment [1] (setting [16]) it was 2.1. Also, in experiment [1], the “Onset of cooling activity” value is “distinctly retarded onset of the cooling action”.

Consider `CCNC(=O)C1CC(C)CCC1C(C)C` (stereo not drawn) [WS3, N-ethylmenthane-3-carboxamide], for which the Cooling intensity was 0 in experiment [1] (setting [2]); 4.3 in experiment [1] (setting [3]); 4.3 in experiment [1] (setting [4]); 4.1 in experiment [1] (setting [5]); 3.7 in experiment [1] (setting [6]); 3.4 in experiment [1] (setting [7]). The Cooling intensity in experiment [1] (setting [8]) is on record as 3.1; in experiment [1] (setting [9]), 2.9; in experiment [1] (setting [10]) it was 2.8; in experiment [1] (setting [11]), 2.4; in experiment [1] (setting [12]) it was 2.3; in experiment [1] (setting [13]) it was 2.1. Moreover, the Cooling intensity in experiment [1] (setting [14]) is 1.2; in experiment [1] (setting [15]) it was 0.5; in experiment [1] (setting [16]), 0.3.
